The text below walks through data of US20110173718A1, “HERBICIDE TOLERANT PLANTS” (SYNGENTA CROP PROTECTION, INC., priority 2008, published 2011).

Where “and” joins values, the source holds several entries; their conditions need not be identical. Equal entries are not always repeated. Where two headings read alike, the source gives them in different places.

For one test, the system named is weeds. Nature of the test: Glasshouse weed control, HST inhibitors alone and with A22, post-emergence. It counts as in vivo. To be noted: 336 h, 14 DAT, single replicate, read-out: % control score, Obs; for pest or weed control at 15.625 g/ha: 15.625 g/ha alone; for pest or weed control at 62.5 g/ha: 62.5 g/ha alone; for pest or weed control at 250 g/ha: 250 g/ha alone. Summed up:
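Weeds grown in glasshouse trays (24-27 C day, 18-21 C night, ~15 h photoperiod) and track-sprayed in 0.2% X77 at […], pre-emergence or post-emergence at about 7-12 d. HPPD inhibitor A22 applied at 2 g/ha alone or mixed with HST herbicides. Damage scored 0–100% at 14 DAT; synergy calculated by Colby formula.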

Test [1] deals with tobacco (var Samsun) plantlets on liquid culture medium. Description: HST + HPPD herbicide effects on tobacco seedlings on liquid culture medium. To be noted: for % Injury, plus Mesotrione (0.0005 ppm) / % Injury, plus Mesotrione (0.001 ppm) / % Injury (bleaching), compound 2.13 only: liquid culture, 20 DAT. It counts as in vivo. The procedure:
In an alternative herbicide test procedure tobacco (var Samsun) plantlets germinated aseptically in agar made up in 1/3 strength Murashige and Skoog salts medium are transferred after 4 d to float on top of 2.9 ml of sterile liquid culture medium (half strength Murashige and Skoog medium containing 30 mM sucrose) in wells of 12 well plates. Test compounds are added at various doses and bleaching damage is assessed after 14-20 DAT. The plantlets are kept covered under clear perspex and grown at 18° C. (night) and 24° C. (day) under a 1611 day (˜500-900 umol/m^2), 8 h darkness regime Plantlets continue to grow and produce new tissue over the 14-20 DAT period but are bleached and grow less in the presence of controlling concentrations of herbicide.

[2] abbreviates: range of rates of compound 2.13 plus the higher dose of mesotrione.

In the case of `O=c1c(-c2c(Cl)ccc(Cl)c2Cl)c(O)c2nccnc2n1CC(F)F` [Compound 2.14], the pest or weed control at 15.625 g/ha in the test with weeds (BRAPL) was 30%; with weeds (PANMI), 40%; with weeds (SIDSP), 15%; with weeds (Digitaria sanguinalis, DIGSA) it was 10%; in the test with weeds (Echinochloa crus-galli, ECHCG), 30%; in the test on weeds (Setaria faberi, SETFA), 25%. The pest or weed control at 62.5 g/ha stood at 60% with weeds (BRAPL); 60% with weeds (PANMI); 30% in the test with weeds (SIDSP); 20% in the test on weeds (Digitaria sanguinalis, DIGSA); 50% in the test on weeds (Echinochloa crus-galli, ECHCG); 60% in the test with weeds (Setaria faberi, SETFA). The pest or weed control at 250 g/ha came to 60% in the test with weeds (BRAPL); 90% in the test with weeds (PANMI); 50% in the test on weeds (SIDSP); 20% in the test on weeds (Digitaria sanguinalis, DIGSA); 65% in the test with weeds (Echinochloa crus-galli, ECHCG); 70% in the test with weeds (Setaria faberi, SETFA).

For the molecule `O=c1c(-c2cc(C(F)(F)F)ccc2Cl)c(O)c2nccnc2n1CC(F)F` [Compound 2.9], the pest or weed control at 15.625 g/ha in the test on weeds (BRAPL) was found to be 15%; with weeds (PANMI), 30%; in the test on weeds (SIDSP), 10%; with weeds (Digitaria sanguinalis, DIGSA), 2%; in the test on weeds (Echinochloa crus-galli, ECHCG), 20%; with weeds (Setaria faberi, SETFA), 20%. For the same molecule, the pest or weed control at 62.5 g/ha with weeds (BRAPL) stood at 55%; in the test with weeds (PANMI), 50%; in the test with weeds (SIDSP), 20%; in the test with weeds (Digitaria sanguinalis, DIGSA), 10%; in the test on weeds (Echinochloa crus-galli, ECHCG) it was 40%; in the test with weeds (Setaria faberi, SETFA), 50%. Further, the pest or weed control at 250 g/ha came out at 70% with weeds (BRAPL); 70% in the test on weeds (PANMI); 20% with weeds (SIDSP); 15% in the test with weeds (Digitaria sanguinalis, DIGSA); 70% in the test on weeds (Echinochloa crus-galli, ECHCG); 65% with weeds (Setaria faberi, SETFA).

Turning to `O=c1c(-c2c(F)ccc(Br)c2Cl)c(O)c2nccnc2n1CC(F)F` [Compound 2.8], the pest or weed control at 15.625 g/ha worked out at 20% in the test on weeds (BRAPL); 40% in the test with weeds (PANMI); 30% with weeds (SIDSP); 5% in the test on weeds (Digitaria sanguinalis, DIGSA); 10% in the test on weeds (Echinochloa crus-galli, ECHCG); 5% in the test on weeds (Setaria faberi, SETFA). Moreover, the pest or weed control at 62.5 g/ha in the test on weeds (BRAPL) was determined as 55%; with weeds (PANMI) it was 50%; in the test with weeds (SIDSP), 45%; with weeds (Digitaria sanguinalis, DIGSA), 20%; with weeds (Echinochloa crus-galli, ECHCG), 40%; in the test with weeds (Setaria faberi, SETFA) it was 65%. Besides, the pest or weed control at 250 g/ha in the test on weeds (BRAPL) came to 85%; in the test with weeds (PANMI), 80%; with weeds (SIDSP), 50%; in the test on weeds (Digitaria sanguinalis, DIGSA), 60%; in the test on weeds (Echinochloa crus-galli, ECHCG) it was 65%; in the test on weeds (Setaria faberi, SETFA), 60%.

In the case of `O=c1c(-c2c(F)ccc(F)c2Cl)c(O)c2cccnc2n1CC(F)F` [Compound 2.13], the “% Injury, plus Mesotrione (0.0005 ppm)” value in test [1] (compound 2.13 0.01 ppm + mesotrione 0.0005 ppm) worked out at 0%; in test [1] (compound 2.13 0.03 ppm + mesotrione 0.0005 ppm), 0%; in test [1] (compound 2.13 0.09 ppm + mesotrione 0.0005 ppm) it was 0%; in test [1] (compound 2.13 0.28 ppm + mesotrione 0.0005 ppm) it was 0%; in test [1] (compound 2.13 0.85 ppm + mesotrione 0.0005 ppm), 40%; in test [1] (compound 2.13 2.56 ppm + mesotrione 0.0005 ppm), 90%. Besides, the “% Injury, plus Mesotrione (0.0005 ppm)” value in test [1] (compound 2.13 7.67 ppm + mesotrione 0.0005 ppm) and in test [1] (compound 2.13 23 ppm + mesotrione 0.0005 ppm) was 100% throughout. The “% Injury, plus Mesotrione (0.001 ppm)” value in test [1] (compound 2.13 0.01 ppm + mesotrione 0.001 ppm) is on record as 40%; in test [1] (compound 2.13 0.03 ppm + mesotrione 0.001 ppm), 60%; in test [1] (compound 2.13 0.09 ppm + mesotrione 0.001 ppm), 80%; in test [1] (compound 2.13 0.28 ppm + mesotrione 0.001 ppm), 80%; in test [1] (compound 2.13 0.85 ppm + mesotrione 0.001 ppm), 90%; in test [1] (compound 2.13 2.56 ppm + mesotrione 0.001 ppm), 90%. The “% Injury, plus Mesotrione (0.001 ppm)” value in test [1] (compound 2.13 7.67 ppm + mesotrione 0.001 ppm) and in test [1] (compound 2.13 23 ppm + mesotrione 0.001 ppm) was 100% in each case. Further, the “% Injury (bleaching), compound 2.13 only” value in test [1] (compound 2.13 0.01 ppm), in test [1] (compound 2.13 0.03 ppm), in test [1] (compound 2.13 0.09 ppm), in test [1] (compound 2.13 0.28 ppm), in test [1] (compound 2.13 0.85 ppm) and in test [1] (compound 2.13 2.56 ppm) was 0% throughout. Further, the “% Injury (bleaching), compound 2.13 only” value in test [1] (compound 2.13 7.67 ppm) stood at 50%; in test [1] (compound 2.13 23 ppm) it was 100%. Besides, the “bleaching expected (Colby)” value in test [1] (setting [2]) was determined as 20%. Besides, the bleaching observed in test [1] (setting [2]) is 80% and 90%.
